# Assay results: article PMC12064818, “A general assay platform to study protein pharmacology using ligand-dependent structural dynamics” (Nature Communications, 2025)
# Target: T1, FLuc-C-HiBiT (Photinus pyralis, UniProt P08659)
# T1 construct: firefly luciferase with C-terminal HiBiT tag, E. coli expressed
# Test: biochemical
# Conditions: enzyme activity, 10 uM ATP; read-out: IC50 or SDR50 (mM) / FLuc E
# T1 sequence (P08659 whole entry, looked up): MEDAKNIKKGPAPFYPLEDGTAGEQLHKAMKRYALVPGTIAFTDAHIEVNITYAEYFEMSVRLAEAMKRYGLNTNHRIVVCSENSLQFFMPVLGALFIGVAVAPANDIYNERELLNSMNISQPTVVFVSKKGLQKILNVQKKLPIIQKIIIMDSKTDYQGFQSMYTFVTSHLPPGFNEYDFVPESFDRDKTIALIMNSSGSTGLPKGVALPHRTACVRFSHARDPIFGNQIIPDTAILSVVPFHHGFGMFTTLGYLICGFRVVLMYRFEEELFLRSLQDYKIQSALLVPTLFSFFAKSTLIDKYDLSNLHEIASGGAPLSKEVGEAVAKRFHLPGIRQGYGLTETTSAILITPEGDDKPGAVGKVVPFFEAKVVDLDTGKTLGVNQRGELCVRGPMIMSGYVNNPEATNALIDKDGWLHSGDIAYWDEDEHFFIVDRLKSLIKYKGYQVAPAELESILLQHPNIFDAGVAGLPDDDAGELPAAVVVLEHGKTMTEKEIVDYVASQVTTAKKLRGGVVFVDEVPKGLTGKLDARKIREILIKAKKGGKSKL
row,SMILES,IC50
1,COc1ccccc1CNC(=O)c1ccc2nc(N3CCCCC3)sc2c1 [NCGC00113612-01],> 0.03 mM
2,COc1cccc(Nc2cc3c(cn2)CN(C)CCN3)c1 [NCGC00411064-01],0.0226 mM
3,Cc1c(NC(=O)c2cccc(Cl)c2Cl)cccc1-c1nc2ccccc2s1 [NCGC00595034-01],> 0.03 mM
4,COc1cc(OC)cc(C(=O)Nc2ccc(-c3nc4ccccc4s3)c(C)c2)c1 [NCGC00137814-01],> 0.03 mM
5,CCOc1ccc2nc(N3CCN(C(=O)c4ccco4)CC3)sc2c1 [NCGC00137033-01],0.0124 mM
6,c1ccc(COc2ccccc2-c2nc3ccccc3s2)cc1 [NCGC00167623-01],0.0124 mM
7,CSc1ccc(C(=O)Nc2ccc(-c3nc4ccccc4s3)c(O)c2)cc1 [NCGC00134695-01],> 0.03 mM
8,CCNC(=O)C1C(c2cccc(NC(=O)c3ccc(OC)cc3)c2)OC(=O)N1Cc1ccc(C)cc1 (stereo not drawn) [NCGC00474207-01],0.00394 mM
9,COc1ccc2nc(-c3ccc(Oc4ccccc4)cc3)sc2c1 [NCGC00167605-01],0.0111 mM
10,O=C(Nc1cccc(-c2ccc(N3CCOCC3)nn2)c1)Nc1ccc2c(c1)CCC2 [NCGC00427612-01],0.00279 mM
11,CN1CCNc2cc(-c3ccc([S+](C)(=O)[O-])cc3)ncc2C1 [NCGC00411079-01],> 0.03 mM
12,CCCCCc1nn2cc(-c3ccccc3)nc2s1 [NCGC00117458-01],0.000624 mM
13,CCOc1cccc(NC(=O)CSc2ncc(-c3ccccc3)[nH]2)c1 [NCGC00106968-01],> 0.03 mM
14,Cc1cccc(NC(=O)Nc2ccc(F)cc2)n1 [NCGC00106833-01],0.0124 mM
15,Cc1ccc(-c2cc3c(=O)n(CCNC(=O)c4ccc(N(C)C)cc4)ccn3n2)c(C)c1 [NCGC00456986-01],0.00313 mM
16,CC(=O)N[C@@H]1C=C[C@@H](c2c(C)nn(-c3ccc(C(F)(F)F)cc3)c2C)C1 [NCGC00400353-01],0.0161 mM
17,Cc1nc(CN2CCOc3c(O)cc(-c4nc5ccccc5s4)cc3C2)no1 [NCGC00430265-01],> 0.03 mM
18,Clc1ccc(-c2cc3c(cn2)CN(Cc2ccncc2)CCN3)cc1 [NCGC00411101-01],0.0161 mM
19,COc1cccc(-c2ccc(-c3nc(C4CCOC4)no3)o2)c1 (stereo not drawn) [NCGC00448436-01],0.00989 mM
20,Cc1ccc(C(=O)Nc2onc3c2CCCC3)cc1 [NCGC00115902-01],0.000989 mM
21,Cc1ccc(OCC(=O)Nc2cccc(C(=O)OCc3cc(=O)n4nc(C)sc4n3)c2)cc1 [NCGC00130504-01],0.007 mM
22,COc1ccc(-c2cc(N3CCCC(NC(=O)c4cccc5[nH]ccc45)C3)[nH]n2)cc1 (stereo not drawn) [NCGC00437654-01],0.014 mM
23,Oc1ccccc1CN1CCNc2cc(Nc3ccccc3)ncc2C1 [NCGC00411199-02],0.0124 mM
24,CCCOc1cccc(C(=O)Nc2ccc(-c3nc4ccccc4s3)c(Cl)c2)c1 [NCGC00102006-02],0.0157 mM
25,O=C(NCc1ccc2c(c1)OCO2)C1CCN(c2cc(C(F)(F)F)ncn2)CC1 [NCGC00455586-01],0.0111 mM
26,Cn1c(C(=O)Nc2ccc3c(c2)OCO3)cc2c1CCN(Cc1cccc(F)c1)C2 [NCGC00430636-01],> 0.03 mM
27,O=C(Nc1nc2c(F)cccc2s1)c1ccc2c(c1)OCCO2 [NCGC00141660-01],0.000495 mM

row,SMILES,IC50
1,CCC(=O)N1CCc2ccc(C(=O)NC3CCCCC3)cc21 [NCGC00430262-01],0.0111 mM
2,CCOC(=O)c1cccc(Nc2nc(-c3ccccc3)no2)c1 [NCGC00422292-01],0.00624 mM
3,CCN1CCN(C(=O)Cn2c(C)ccc(NC(=O)Nc3ccc(C)cc3)c2=O)CC1 [NCGC00430774-01],0.00495 mM
4,CCNC(=O)N[C@@H]1C=C[C@@H](c2c(C)nn(-c3ccc(F)cc3)c2C)C1 [NCGC00392634-01],0.0202 mM
5,Cc1ncccc1C(=O)N1CCC(Oc2ccc(-c3noc(-c4ccccc4)n3)cc2)C1 (stereo not drawn) [NCGC00440997-01],0.0111 mM
6,Cc1ccc(NC(=O)Nc2ccc(C)n(CC(=O)NCC(C)C)c2=O)cc1 [NCGC00430796-01],0.00111 mM
7,CCc1cccc(NC(=O)c2cc(-c3ccccc3)n[nH]2)c1 [NCGC00125661-01],0.00279 mM
8,CN(CCc1cn[nH]c1)c1ccc(-c2nc(-c3ccccc3F)no2)cn1 [NCGC00429241-01],0.00313 mM
9,O=C(CSc1nnc2[nH]c(=O)cc(-c3ccccc3)n12)Nc1ccc(OC(F)(F)F)cc1 [NCGC00136515-01],0.007 mM
10,COc1ccc(-n2nc(C)c([C@@H]3C=C[C@@H](NC(=O)Nc4cccc(C#N)c4)C3)c2C)cc1 [NCGC00400336-01],0.018 mM
11,CC(=O)c1cccc(Nc2nn(-c3ccc(OC(F)(F)F)cc3)nc2C(C)=O)c1 [NCGC00116630-01],0.00442 mM
12,COc1ccc(Nc2nc(-c3cccc(OC)c3)no2)cc1 [NCGC00422374-01],0.00785 mM
13,CC(=O)NCCNC(=O)c1ccc2c(=O)n(CCc3ccccc3)c(=O)[nH]c2c1 [NCGC00104963-01],0.00556 mM
14,O=C(O)c1ccnc(-c2ccnc(NCCN3CCCCC3=O)n2)c1 [NCGC00438481-01],0.0111 mM
15,COc1cccc(CC(=O)Nc2ccc(-c3nc4ccccc4s3)cc2)c1 [NCGC00137800-01],0.00881 mM
16,Cc1nnc(CN(C)c2ccc(-c3nc(-c4cccc(Cl)c4)no3)cn2)o1 [NCGC00427683-01],0.00495 mM
17,CC(C)Oc1cccc(-c2cccc(COc3cnc4c(ccn4CC(=O)O)c3)c2)c1 [NCGC00418183-01],0.018 mM
18,CN1CCN(C[C@@H]2CN(C(=O)CCCc3ccccc3)C[C@@H]2CO)CC1 [NCGC00435815-01],> 0.03 mM
19,Nc1nc2c(ncn2COCCO)c(=O)[nH]1 [NCGC00015061-13],> 0.03 mM
20,c1ccc(-c2noc(-c3nc(C4CC4)no3)n2)cc1 [NCGC00450069-01],0.00989 mM
21,COc1ccc(C(=O)NCC2Cc3cc(C)cc(-c4nc5ccccc5s4)c3O2)c(OC)c1OC (stereo not drawn) [NCGC00240387-01],> 0.03 mM
22,O=C(NCCc1ccccc1F)c1nc2sccn2c1Br [NCGC00479849-01],0.007 mM
23,CCN(CC)[S+](=O)([O-])c1ccc2nc(NC(=O)c3cccnc3)sc2c1 [NCGC00134045-01],0.0124 mM
24,O=C(Nc1cnc(-c2ccccc2)nc1)C1CCCCC1 [NCGC00432861-01],0.00197 mM
25,Cc1ccc(-c2cc(N3CCC(CNC(=O)c4ccc5[nH]cnc5c4)CC3)[nH]n2)cc1 [NCGC00437766-01],0.00881 mM
26,CSCC(=O)N[C@H]1CCN2C(=O)c3cc(-c4ccc(SC)cc4)ccc3NC(=O)[C@H]12 [NCGC00391740-01],0.0111 mM

# Now from value to molecule:
row,IC50,SMILES
1,0.00394 mM,CCOc1ccccc1NC(=O)Nc1cccc(-c2ccc(N3CCOCC3)nn2)c1 [NCGC00427574-01]
2,0.0202 mM,CC(C)c1cnc(N2CCC(COc3ccc4c(cnn4CCC(=O)O)c3)CC2)nc1 [NCGC00418130-01]
3,0.016 mM,COc1ccc(-c2nc3ncccc3[nH]2)cc1 [NCGC00375673-01]
4,0.00785 mM,CCc1nn2c(-c3ccco3)ccnc2c1-c1ccc(F)cc1 [NCGC00164922-01]
5,0.0157 mM,Fc1ccc(NCc2ccccc2-c2nnc(-c3ccccc3Cl)o2)cc1Cl [NCGC00107402-01]
6,0.00394 mM,COc1ccc(-c2cc(=O)c3cc(OCC(=O)OC(C)C)ccc3o2)cc1 [NCGC00100608-01]
7,0.00176 mM,COc1cc(NC(=O)Nc2cccc(-c3ccc(N4CCOCC4)nn3)c2)cc(OC)c1 [NCGC00427592-01]
8,> 0.03 mM,COc1ccc(CN2CC(COc3ccccc3)C3(C2)CN(c2ccccc2)C3)cc1O (stereo not drawn) [NCGC00415956-01]
9,> 0.03 mM,Cc1cc(F)ccc1OC1(C(=O)O)CCN(c2ncnc3[nH]cnc23)CC1 [NCGC00438333-01]
10,0.00248 mM,O=C(Nc1ccccc1F)c1ccc(-c2ccccc2)s1 [NCGC00114318-01]
11,0.00111 mM,O=C(NCCc1ccccc1Cl)c1ccc2c(c1)nc1n2CCCCC1 [NCGC00133356-01]
12,0.00989 mM,COc1ccc2cc(C3CN(C(=O)CCc4n[nH]c(C)n4)CCO3)ccc2c1 (stereo not drawn) [NCGC00430617-01]
13,> 0.03 mM,COc1cccc(C(=O)Nc2ccc(O)c(-c3nc4ccccc4s3)c2)c1 [NCGC00594707-01]
14,0.00989 mM,Cc1ccc(C2Cn3nnc(C(=O)N4CCC(C(=O)NCCc5cccs5)CC4)c3CO2)cc1 (stereo not drawn) [NCGC00449541-01]
15,0.0202 mM,COc1cccc(Nc2ccc(CN3CCC(C)(NC(C)=O)C3)cc2)c1 (stereo not drawn) [NCGC00410471-01]
16,0.00495 mM,O=C(O)c1ccc(-c2noc(-c3cccc(F)c3)n2)cc1 [NCGC00168097-02]

row,IC50,SMILES
1,> 0.03 mM,Cc1cc(-c2nc3ccccc3s2)ccc1NC(=O)c1cc(Cl)ccc1Cl [NCGC00102363-01]
2,0.00989 mM,COc1ccc(/C=C/c2ccc3c(c2)C(=O)N2CC[C@H](NC(=O)COCC(=O)O)[C@H]2C(=O)N3)cc1 [NCGC00421238-01]
3,0.00351 mM,CCOc1ccc(-c2cc(CCCC(=O)NCCc3ccc(OCC)c(OCC)c3)no2)cc1 [NCGC00110850-01]
4,0.014 mM,O=C(c1ccc2oc(-c3cccc(F)c3)nc2c1)N1CCCCC1CCO (stereo not drawn) [NCGC00427691-01]
5,> 0.03 mM,Cc1cccc(C(=O)Nc2ccc(-c3nc4ccccc4s3)cc2Cl)c1 [NCGC00137810-01]
6,0.00124 mM,COc1ccc2nc(-c3cccc(C(C)=O)c3)sc2c1 [NCGC00167608-01]
7,0.00176 mM,COc1ccc(NC(=O)Nc2cccc(-c3ccc(N4CCOCC4)nn3)c2)cc1 [NCGC00427572-01]
8,0.0124 mM,CSc1ccc(-c2ccc3c(c2)C(=O)N2CC[C@H](NC(=O)c4cccs4)[C@H]2C(=O)N3)cc1 [NCGC00393756-01]
9,0.00881 mM,CCOC(=O)c1cccc(NC(=O)CCc2c(C)nc3cc(-c4ccc(Cl)cc4)nn3c2C)c1 [NCGC00110030-01]
10,0.0128 mM,COc1ccc(-c2cc3c(cn2)CN(C(C)=O)CCN3)cc1 [NCGC00411126-01]
11,0.00157 mM,Fc1ccccc1Cc1cn2cc(-c3ccc(Cl)cc3)nc2s1 [NCGC00102106-01]
12,0.018 mM,CCOc1nccn2c(-c3ccc(CNC(=O)CNC(C)=O)cc3)cnc12 [NCGC00413921-01]
13,> 0.03 mM,O=C(Nc1ccccc1)C1CCN(C(=O)N2CC3CC(C2)[C@H]2CCCC(=O)N2C3)CC1 (stereo partly drawn) [NCGC00428953-01]
14,0.00989 mM,O=C(NC[C@H]1Cn2cc(-c3ccc4c(c3)OCCCO4)nc2CO1)c1ccc2c(c1)OCO2 [NCGC00392108-01]
15,0.00114 mM,COCCN1CCC2(C1)CN(C)c1ccc(C(=O)Nc3ccccc3)cc12 (stereo not drawn) [NCGC00419345-01]
